Test results as given in US6472385B1, “Compositions and methods to enhance cancer chemotherapy in p53 defective tumors” (priority 1999, dated 2002).

What was measured:
[1] = tested on: DNA damage-induced cell cycle arrest; assay: Cell cycle analysis: abrogation of DNA damage-induced cell cycle arrest; format: cell-based; conditions: for G2 arrest caused by the compound itself: compound alone / at concentrations capable of abrogating arrest
Protocol: Experiments of cell cycle analysis were conducted in accordance with procedures described by […] et al. Cell Growth and Differ. 1994 5:983-993; Bunch, R. T. and Eastman, A. […] T. and Eastman, A. Cell Growth and Differ. 1997 8:779-788.

[2] = tested on: DNA damage-induced cell cycle arrest; assay: Cell cycle arrest abrogation in the presence of human plasma / plasma proteins; format: cell-based; conditions: human plasma / human plasma proteins added
Protocol: However, in K252a the hexose. moiety is replaced with a pentose moiety. […] It is believed that the pentose ring of this structure prevents binding of this compound to human plasma proteins.
Experiments of cell cycle analysis were conducted in accordance with procedures described by Demarcq et al. Cell Growth and Differ. 1994 5:983-993; Bunch, R. T. and Eastman, A. Clinical Cancer Research 1996 2:791-7; and Bunch, R. T. and Eastman, A. Cell Growth and Differ. 1997 8:779-788.

[3] = tested on: p53 defective human breast cancer cells lines, MDA-MD-231 and T47D; assay: Selectivity of arrest abrogation for p53 defective cell lines; format: cell-based
Protocol: The breast cancer cell lines were obtained from the American Type Culture Collection (Rockville, Md.). The cells were maintained in Dulbecco's modified Eagle's Medium supplemented with 10% fetal bovine serum, penicillin (100 units/ml), streptomycin (100 μg/ml) and fungizone (0.25 μg/ml).

[4] = tested on: human prostate carcinoma cells; conditions: cited from earlier work
[5] = tested on: G2 checkpoint activated by DNA damage; conditions: literature; UCN-01: noncytotoxic doses, cisplatin; cited from earlier work
[6] = tested on: Chinese hamster ovary cells; conditions: Chinese hamster ovary cells incubated with cisplatin; cited from earlier work
human cells = conditions: cited from earlier work

Compound: COC(=O)[C@@]1(O)CC2O[C@]1(C)n1c3ccccc3c3c4c(c5c6ccccc6n2c5c31)C(=O)NC4=O [ICP1]
- G2 arrest caused by the compound itself [1]: does not cause G2 arrest
- abrogation of cell cycle arrest ([1]; non-toxic concentrations): abrogates cell cycle arrest at non-toxic concentrations
- activity (abrogation of cell cycle arrest) in the presence of human plasma [2]: maintain its ability to abrogate cell cycle arrest
- selectivity of abrogation of cell arrest for p53 defective cell lines [3]: selective for p53 defective cell lines

Compound: COC(=O)[C@@]1(O)CC2O[C@]1(C)n1c3ccccc3c3c4c(c5c6ccccc6n2c5c31)C(=O)NC4 [K252a]
- abrogation of cell cycle arrest in the G2 phase ([1]; G2 phase): does not abrogate cell cycle arrest in the G2 phase
- abrogation of cell cycle arrest in the S phase ([1]; S phase): only abrogates cell cycle arrest in the S phase
- G2 arrest caused by the compound itself [1]: causes G2 arrest
- activity (abrogation of cell cycle arrest) in the presence of human plasma [2]: not inhibited
- inhibition of growth of human prostate carcinoma cells [4]: inhibit the growth

Compound: CN[C@@H]1C[C@H]2O[C@@](C)([C@@H]1OC)n1c3ccccc3c3c4c(c5c6ccccc6n2c5c31)C(=O)N[C@H]4O [UCN-01, 7-hydroxystaurosporine]
- abrogation of G2 checkpoint / G2 arrest after DNA damage [5]: abrogate the G2 arrest
- abrogation of S-phase arrest [6]: abrogates this S-phase arrest
- abrogation of S phase arrest (human cells): Abrogation of S phase arrest has also been observed

Compound: COC[C@@H]([C@H](O)[C@H](O)C(=O)NCC[C@H](C)c1nc(/C=C/C[C@@H]2O[C@]3(C[C@@H](O)[C@@H]2C)O[C@H]([C@H](C[C@H](O)[C@H](C)[C@H](O)[C@H](C)/C=C(C)/C(C)=C/C=C/C(C)=C\C#N)OC)[C@H](OP(=O)(O)O)C3(C)C)co1)N(C)C [calyculin A]
- abrogation of G2 checkpoint / G2 arrest after DNA damage [5]: abrogate the G2 checkpoint

Compound: C[C@@](O)(/C=C/[C@H]1CC=CC(=O)O1)[C@@H](C[C@@H](O)\C=C/C=C\C=C\CO)OP(=O)(O)O [fostriecin]
- abrogation of G2 checkpoint / G2 arrest after DNA damage [5]: abrogate the G2 checkpoint

Compound: C=C1[C@@H](O)[C@@H]2O[C@]3(CC[C@H](/C=C/[C@@H](C)[C@@H]4CC(C)=C[C@@]5(O[C@H](C[C@@](C)(O)C(=O)O)CC[C@H]5O)O4)O3)CC[C@H]2O[C@@H]1[C@@H](O)C[C@H](C)[C@H]1O[C@@]2(CCCCO2)CC[C@H]1C [okadaic acid]
- abrogation of G2 checkpoint / G2 arrest after DNA damage [5]: abrogate the G2 checkpoint

Compound: CC(=O)CCCCn1c(=O)c2c(ncn2C)n(C)c1=O [pentoxifylline]
- abrogation of G2 checkpoint / G2 arrest after DNA damage [5]: abrogate the G2 checkpoint

Compound: CN[C@@H]1C[C@H]2O[C@@](C)([C@@H]1OC)n1c3ccccc3c3c4c(c5c6ccccc6n2c5c31)C(=O)NC4 [staurosporine]
- abrogation of G2 checkpoint / G2 arrest after DNA damage [5]: abrogate the G2 checkpoint
